Type in all cases: biochemical
The target in experiment [1] is rat sucrase (partially purified alpha-glucosidase from intestinal rat powder) (Rattus norvegicus, UniProt P23739). As to the kind of experiment: Intestinal alpha-glucosidase assay, sucrose substrate (Glucose GO Kit). The method, boiled down:
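Partially purified alpha-glucosidase from rat intestinal powder was preincubated 60 min at 37 °C with serial compound dilutions, then given maltose or sucrose and incubated 30 min at 37 °C.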

Experiment [2] addresses recombinant human GAA (acid alpha-glucosidase) (Homo sapiens, UniProt P10253). As to the kind of experiment: Acid alpha-glucosidase (GAA) assay (4-methylumbelliferyl-alpha-D-pyranoside substrate, fluorescence). The method, boiled down:
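IC50 from 4-PL curve fit of percent inhibition, based on fluorescence (365/440 nm) of released methylumbelliferone relative to uninhibited enzyme. Compound dilutions and human GAA incubated 60 min, 37 °C, before 20 min substrate reaction at 37 °C, quenched at pH 10.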

The target of experiment [3] is T1, recombinant human GBA (beta-glucocerebrosidase) (Homo sapiens, UniProt P04062).
T1 sequence (P04062 40-536): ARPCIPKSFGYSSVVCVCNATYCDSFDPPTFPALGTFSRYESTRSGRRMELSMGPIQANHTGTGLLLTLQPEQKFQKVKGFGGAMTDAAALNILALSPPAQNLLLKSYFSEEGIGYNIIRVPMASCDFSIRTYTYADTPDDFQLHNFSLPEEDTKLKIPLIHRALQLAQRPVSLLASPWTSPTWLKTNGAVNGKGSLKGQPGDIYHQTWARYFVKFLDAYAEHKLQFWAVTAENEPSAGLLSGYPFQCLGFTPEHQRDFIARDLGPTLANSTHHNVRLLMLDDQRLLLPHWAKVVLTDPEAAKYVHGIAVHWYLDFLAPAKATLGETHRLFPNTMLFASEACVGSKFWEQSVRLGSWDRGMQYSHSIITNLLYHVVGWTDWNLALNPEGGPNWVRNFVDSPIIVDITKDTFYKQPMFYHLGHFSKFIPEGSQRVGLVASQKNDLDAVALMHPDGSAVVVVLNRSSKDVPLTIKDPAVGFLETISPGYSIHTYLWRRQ
Description: Beta-glucocerebrosidase (GBA, glucosylceramidase) assay (4-methylumbelliferyl-beta-D-pyranoside substrate, fluorescence). The method, boiled down:
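IC50 by four-parameter fit of percent inhibition, with product fluorescence (365/440 nm) read after a glycine/NaOH pH 10 stop. Compound and commercial recombinant human enzyme were incubated 60 min at 37 °C before a further 60 min at 37 °C with 4-methylumbelliferyl-beta-D-pyranoside substrate.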

Experiment [4] addresses rat maltase (partially purified alpha-glucosidase from intestinal rat powder). As to the kind of experiment: Intestinal alpha-glucosidase assay, maltose substrate (Glucose GO Kit). A digest of the protocol:
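First step: 60 min, 37 °C, compound with partially purified rat intestinal alpha-glucosidase. Next, maltose or sucrose for 30 min at 37 °C, ended at 90 °C for 5 min. Glucose quantified enzymatically; concentration–inhibition data fitted 4-PL for IC50.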

Sequence of rat sucrase (partially purified alpha-glucosidase from intestinal rat powder) (P23739 whole entry): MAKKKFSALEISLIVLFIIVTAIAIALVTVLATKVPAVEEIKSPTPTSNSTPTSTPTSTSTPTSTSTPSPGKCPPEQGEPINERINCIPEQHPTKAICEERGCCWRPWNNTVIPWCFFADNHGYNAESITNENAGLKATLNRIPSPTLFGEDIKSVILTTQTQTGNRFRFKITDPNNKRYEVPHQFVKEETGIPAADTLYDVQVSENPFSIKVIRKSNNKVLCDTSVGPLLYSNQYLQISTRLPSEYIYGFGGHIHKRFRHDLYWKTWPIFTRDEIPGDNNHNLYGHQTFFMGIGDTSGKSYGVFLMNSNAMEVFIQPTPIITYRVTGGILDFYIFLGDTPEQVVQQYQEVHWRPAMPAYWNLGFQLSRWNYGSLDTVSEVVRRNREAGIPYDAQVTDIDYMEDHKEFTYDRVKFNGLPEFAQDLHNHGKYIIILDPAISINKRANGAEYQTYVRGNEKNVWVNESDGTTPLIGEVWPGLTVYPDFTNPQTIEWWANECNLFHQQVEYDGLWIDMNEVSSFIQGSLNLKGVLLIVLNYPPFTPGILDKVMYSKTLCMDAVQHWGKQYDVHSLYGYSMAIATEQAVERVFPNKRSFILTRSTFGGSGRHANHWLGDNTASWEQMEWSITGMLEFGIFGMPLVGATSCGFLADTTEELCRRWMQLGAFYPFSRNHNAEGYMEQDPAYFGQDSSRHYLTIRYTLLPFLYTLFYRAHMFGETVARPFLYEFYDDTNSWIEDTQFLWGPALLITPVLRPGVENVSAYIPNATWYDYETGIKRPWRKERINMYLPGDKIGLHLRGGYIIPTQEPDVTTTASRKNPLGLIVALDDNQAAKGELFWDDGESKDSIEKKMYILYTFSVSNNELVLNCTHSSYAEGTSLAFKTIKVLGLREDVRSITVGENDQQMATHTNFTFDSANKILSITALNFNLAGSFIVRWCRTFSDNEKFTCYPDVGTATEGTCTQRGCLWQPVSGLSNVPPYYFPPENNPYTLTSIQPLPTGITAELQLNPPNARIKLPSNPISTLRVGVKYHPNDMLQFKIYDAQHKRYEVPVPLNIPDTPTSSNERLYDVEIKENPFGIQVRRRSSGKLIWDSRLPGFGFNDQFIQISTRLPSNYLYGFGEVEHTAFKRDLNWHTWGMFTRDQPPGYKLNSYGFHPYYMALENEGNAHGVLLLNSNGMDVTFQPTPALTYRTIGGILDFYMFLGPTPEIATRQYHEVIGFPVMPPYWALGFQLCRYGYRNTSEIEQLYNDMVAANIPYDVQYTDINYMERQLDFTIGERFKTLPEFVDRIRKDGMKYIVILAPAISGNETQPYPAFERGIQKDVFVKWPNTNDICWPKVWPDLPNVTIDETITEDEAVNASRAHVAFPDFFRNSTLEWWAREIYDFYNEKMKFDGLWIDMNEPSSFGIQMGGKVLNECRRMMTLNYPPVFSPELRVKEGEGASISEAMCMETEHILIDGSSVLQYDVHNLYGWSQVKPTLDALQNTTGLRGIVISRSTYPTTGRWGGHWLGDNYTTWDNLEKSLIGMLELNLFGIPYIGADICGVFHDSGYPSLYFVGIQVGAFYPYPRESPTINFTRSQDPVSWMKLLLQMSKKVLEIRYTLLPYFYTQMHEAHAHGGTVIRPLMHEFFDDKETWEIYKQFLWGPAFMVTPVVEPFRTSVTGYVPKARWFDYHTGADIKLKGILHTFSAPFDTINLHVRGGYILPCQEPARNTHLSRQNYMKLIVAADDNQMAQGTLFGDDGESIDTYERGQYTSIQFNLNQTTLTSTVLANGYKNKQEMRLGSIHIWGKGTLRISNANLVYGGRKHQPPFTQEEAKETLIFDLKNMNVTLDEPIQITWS

Consider `COC(=O)c1cc(Cl)cc(NCCc2ccc(CCN3C[C@H](O)[C@@H](O)[C@H](O)[C@H]3CO)cc2)c1` [Compound 1116, methyl 3-chloro-5-{[2-(4-{2-[(2R,3R,4R,5S)-3,4,5-trihydroxy-2-(hydroxymethyl)piperidin-1-yl]ethyl}phenyl)ethyl]amino}benzoate], for which the IC50 was found to be 1230 nM in experiment [1], 428 nM in experiment [2], 904 nM in experiment [3] and 162 nM in experiment [4].

As to `O=C(O)c1cc(Cl)cc(NCCc2ccc(CCN3C[C@H](O)[C@@H](O)[C@H](O)[C@H]3CO)cc2)c1` [Compound 1117, 3-chloro-5-{[2-(4-{2-[(2R,3R,4R,5S)-3,4,5-trihydroxy-2-(hydroxymethyl)piperidin-1-yl]ethyl}phenyl)ethyl]amino}benzoic acid], the IC50 in experiment [1] was found to be 483 nM; in experiment [2], 498 nM; in experiment [3], 18100 nM; in experiment [4] it was 218 nM.

In the case of `O=C(O)c1cc(NCCCCCCN2C[C@H](O)[C@@H](O)[C@H](O)[C@H]2CO)cc(-c2ncccn2)c1` [Compound 1118, 3-(pyrimidin-2-yl)-5-({6-[(2R,3R,4R,5S)-3,4,5-trihydroxy-2-(hydroxymethyl)piperidin-1-yl]hexyl}amino) benzoic acid], the IC50 in experiment [1] came out at 58 nM; in experiment [2] it was 27 nM; in experiment [3], 2430 nM; in experiment [4] it was 4 nM.

For `COc1cc(NCCc2ccc(CCN3C[C@H](O)[C@@H](O)[C@H](O)[C@H]3CO)cc2)cc(-c2noc(C3CCC3)n2)c1` [Compound 1120, (2R,3R,4R,5S)-1-{2-[4-(2-{[3-(5-cyclobutyl-1,2,4-oxadiazol-3-yl)-5-methoxyphenyl]amino}ethyl)phenyl]ethyl}-2-(hydroxymethyl)piperidine-3,4,5-triol], the IC50 came to 506 nM in experiment [1], 581 nM in experiment [2], 13 nM in experiment [3] and 186 nM in experiment [4].

Regarding `OC[C@@H]1[C@@H](O)[C@H](O)[C@@H](O)CN1CCc1ccc(CCNc2cc(Cl)cc(-c3noc(C4CCC4)n3)c2)cc1` [Compound 1122, (2R,3R,4R,5S)-1-{2-[4-(2-{[3-chloro-5-(5-cyclobutyl-1,2,4-oxadiazol-3-yl)phenyl]amino}ethyl)phenyl]ethyl}-2-(hydroxymethyl)piperidine-3,4,5-triol], the IC50 in experiment [1] was found to be 1660 nM; in experiment [2] it was 558 nM; in experiment [3] it was 6 nM; in experiment [4], 717 nM.

The values are drawn from US20250197372A1 (priority 2020, published 2025).
